# Data taken from patent US4820834A, “Benzodiazepine analogs” (priority 1987, dated 1989).
# pIC50: −log10 of the molar value. Like-named read-outs stand apart in the source and are kept apart here.
# Tests used:
# [1] = target: T1, CCK receptor (brain, cerebral cortex) (Cavia porcellus, UniProt H0VZC5); test: biochemical; type: binding, Male Hartley guinea pigs; conditions: guinea pig cerebral cortex, ^125 I-CCK-33, 25° C., 2 hours
# T1 construct: Cerebral cortex was dissected and used as a receptor source; from tissue; host or cells: guinea pig cerebral cortex membranes (male Hartley)
# T1 sequence (H0VZC5 1-426): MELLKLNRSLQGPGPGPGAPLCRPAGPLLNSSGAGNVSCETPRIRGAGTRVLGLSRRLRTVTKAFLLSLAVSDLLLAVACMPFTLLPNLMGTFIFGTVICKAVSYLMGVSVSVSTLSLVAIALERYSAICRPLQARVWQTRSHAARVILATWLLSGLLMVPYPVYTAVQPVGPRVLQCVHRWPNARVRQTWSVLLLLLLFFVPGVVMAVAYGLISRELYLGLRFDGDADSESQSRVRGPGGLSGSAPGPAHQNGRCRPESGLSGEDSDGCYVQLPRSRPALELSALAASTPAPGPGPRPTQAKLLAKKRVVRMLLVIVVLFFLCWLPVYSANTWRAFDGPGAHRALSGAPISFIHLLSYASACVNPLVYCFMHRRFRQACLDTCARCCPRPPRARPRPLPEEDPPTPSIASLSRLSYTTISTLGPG
# Protocol: 2. CCK Recepto Binding (Brain)
# CCK-33 was radiolabeled and the binding was Performed according to the description for the Pancreas method with modifications according to Saito et al., J. Neurochem.
# Cerebral cortex was dissected and used as a receptor source. Each gram of fresh guinea pig brain tissue was homogenized in 10 ml of Tris/Trizma buffer with a Brinkman polytron PT-10. The homogenates were centrifuged at 42,000 g for 15 minutes. Pellets were resuspended in Tris Buffer, centrifuged as above and resuspended in 200 volumes of binding assay buffer (10 mM N-2-hydroxyethyl-piperazine-N'-2-ethane sulfonic acid (HEPES), 5 mM MgCl2, 0.25 mg/ml bacitracin, 1 mM ethylene glycol-bis-(β-aminoethylether-N,N'-tetraacetic acid) (EGTA), and 0.4% bovine serum albumin (BSA)). […] All assays were run in duplicate or triplicate. The reaction mixtures were incubated at 25° C. for 2 hours and centrifuged in a Beckman Microfuge (4 minutes) immediately after adding 1 ml of ice-cold incubation buffer. The supernatant was aspirated and discarded, pellets were counted with a Beckman gamma 5000.
# [2] = target: T2, Gastrin receptor (gastric glands) (Cavia porcellus, UniProt H0VZC5); test: Gastrin Receptor Binding in Guinea Pig Gastric Glands; set-up: species or system guinea pig (male Hartley); conditions: 25° C., 30 minutes
# T2 construct: The washed guinea pig gastric glands prepared as above were resuspended; from tissue; host or cells: guinea pig gastric mucosal glands (male Hartley)
# T2 sequence (H0VZC5 1-426): T1 sequence (H0VZC5 1-426)
# [3] = ^125 I-gastrin, read-out: IC50 ^125 I-Gastrin Gastric Glands
# [4] = IC50 ^125 I-Gastrin Gastric Glands
Structure (SMILES),pIC50 ([1]; IC50 ^125 I-CCK Brain),"pIC50 [2, 3]",pIC50 ([1]; read-out: IC50 ^125 I-CCK Brain),"pIC50 [2, 4]"
"CC(C)(C)OC(=O)N[C@@H](Cc1ccccc1)C(=O)NC1N=C(c2ccccc2)c2ccccc2NC1=O (mixture of isomers) [Example 82, 3(RS)-(2(S)-tert-Butoxycarbonylamino-3-phenylpropanoyl-amino)-1,3-dihydro-5-phenyl-2H-1,4-benzodiazepin-2-one]",4.92,< 4.00,–,–
"CN1C(=O)C(NC(=O)[C@H](Cc2ccccc2)NC(=O)OC(C)(C)C)N=C(c2ccccc2)c2ccccc21 (mixture of isomers) [Example 83, 3(RS)-(2(S)-tert-Butoxycarbonylamino-3-phenylpropanoyl-amino)-1,3-dihydro-1-methyl-5-phenyl-2H-1,4-benzodi-azepin-2-one]",–,4.59,4.89,–
"O=C(NCC1N=C(c2ccccc2F)c2ccccc2NC1=O)OCc1ccccc1 (racemic) [Example 66, 1,3-Dihydro-5-(2'-fluorophenyl)-3(RS)-(benzyloxycarbonyl)aminomethyl-2H-1,4-benzodiazepin-2-one]",4.00,–,–,5.13
"O=C(NCC1N=C(c2ccccc2F)c2ccccc2NC1=O)c1ccsc1 (racemic) [Example 67, 1,3-Dihydro-5-(2'-fluorophenyl)-3(RS)-(3-thiophene-carbonyl)aminomethyl-2H-1,4-benzodiazepin-2-one]",4.00,–,–,4.33
"O=C(NCC1N=C(c2ccccc2F)c2ccccc2NC1=O)c1cc2ccccc2[nH]1 (racemic) [Example 68, 1,3-dihydro-5-(2-fluorophenyl)-3(RS)-(2-indolecarbonylaminomethyl)-2H-1,4-benzodiazepin-2-one]",4.52,–,–,< 4.00
"O=C1Nc2ccccc2C(c2ccccc2F)=NC1CNCC1N=C(c2ccccc2F)c2ccccc2NC1=O (racemic) [Example 69, 1,3-Dihydro-3'-(RS)-[3'-(RS)-(1,3-dihydro-5-(2'-fluorophenyl)-2H-1,4-benzodiazepin-2-one)-3-yl]methylaminomethyl-5-(2'-fluorophenyl)-2H-1,4-benzodiazepin-2-one]",< 4.00,–,–,3.46
"O=C(NC1N=C(c2ccccc2)c2ccccc2NC1=O)c1cc2ccccc2[nH]1 (racemic) [Example 73, 3(RS)-1,3-Dihydro-(2-indolecarbonylamino)-5-phenyl-2H-1,4-benzodiazepin-2-one]",5.10,–,–,5.40
"O=C1Nc2ccccc2C(c2ccccc2)=NC1NCCc1c[nH]c2ccccc12 (racemic) [Example 74, 1,3-Dihydro-3(RS)-[2-(3-indolyl)ethyl]amino-5-phenyl-2H-1,4-benzodiazepin-2-one]",4.00,–,–,< 4.00
"O=C(CCc1c[nH]c2ccccc12)NC1N=C(c2ccccc2)c2ccccc2NC1=O (racemic) [Example 75, 3(RS)-[3-(3-indolyl)propionylamino]-1,3-dihydro-5-phenyl-2H-1,4-benzodiazepin-2-one]",4.00,–,–,5.33
"O=C(Cc1c[nH]c2ccccc12)NC1N=C(c2ccccc2)c2ccccc2NC1=O (racemic) [Example 76, 3(RS)-(3-indoleacetylamino)-1,3-dihydro-5-phenyl-2H-1,4-benzodiazepin-2-one]",4.96,–,–,4.49
"CC(C)C[C@@H](NC(=O)OC(C)(C)C)C(=O)N1CC(C[C@H]2N=C(c3ccccc3F)c3ccccc3NC2=O)c2ccccc21 (stereo partly drawn) [Example 22, 1,3-Dihydro-5-(2-fluorophenyl)-3(R)-[3'-β-(1'-t-Boc-D-leucyl)-indolenyl]methyl-2H-1,4-benzodiazepin-2-one]",< 4.00,–,–,–
"CC(C)C[C@H](NC(=O)OC(C)(C)C)C(=O)N1CC(C[C@H]2N=C(c3ccccc3F)c3ccccc3NC2=O)c2ccccc21 (stereo partly drawn) [Example 23, 1,3-Dihydro-5-(2-fluorophenyl)-3(R)-[3'-α-(1'-t-Boc-L-leucyl)-indolenyl]methyl-2H-1,4-benzodiazepin-2-one]",< 4.00,–,–,–
